Reference: article PMC7419507, “In vitro Cas9-assisted editing of modular polyketide synthase genes to produce desired natural product derivatives” (Nature Communications, 2020)
“And” between values parts separate entries of the source, which are not always exact repeats. Equal values may be shown once.

Columns and labels:
[1] = test system: malignant pleural mesothelioma MESO-1 cells; test: Cytotoxicity assay (CellTiter-Glo, 72 h), MESO-1; assay type: cell-based; conditions: raw replicate data
In short: (§1)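 Cells were seeded at 1000 cells/well and allowed 4 h at 37 °C, 5% CO2 before 2-fold compound dilutions in DMSO were added (0.5% final DMSO). After 72 h exposure, viability was read by CellTiter-Glo luminescence.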

[2] = Cytotoxicity assay (CellTiter-Glo, 72 h), MESO-1; assay type: cell-based; conditions: human, MESO-1 malignant pleural mesothelioma cells, raw replicate data, read-out: MESO1 viability (%)
In short: as §1

[3] = test system: human ovarian adenocarcinoma SKOV-3 cells; test: Cytotoxicity assay (CellTiter-Glo, 72 h), SKOV-3; assay type: cell-based; conditions: raw replicate data
In short: as §1

[4] = Cytotoxicity assay (CellTiter-Glo, 72 h), SKOV-3; assay type: cell-based, human; conditions: human, raw replicate data, read-out: SKOV3 viability (%)
In short: as §1

FKBP12 and mTOR = target: T1, FKBP12 and mTOR (Homo sapiens, UniProt P42345+P62942); test: Fluoppi analysis: induction of FKBP12-mTOR complex formation in transfected HeLa cells; assay type: cell-based; conditions: for Foci intensity: raw data, one replicate per line
T1 construct: host or cells: HeLa cells
In short: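 Complex formation read as fluorescent foci: foci intensity over total per-cell intensity, imaged (×20, 9 fields/well) after fixation and Hoechst stain, giving EC50. Cells: HeLa transiently expressing hAG-mTOR and Ash-FKBP12, exposed to compound concentrations for 1 h at 37 °C.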

[5] = test system: Jurkat, SKOV-3 and MESO-1 cells; test: Cytotoxicity assay, statements for all tested cell lines together; assay type: cell-based; conditions: Jurkat, SKOV-3 and MESO-1 cells, 72 h
In short: as §1

T1 sequence (P42345 2025-2114 limits assumed): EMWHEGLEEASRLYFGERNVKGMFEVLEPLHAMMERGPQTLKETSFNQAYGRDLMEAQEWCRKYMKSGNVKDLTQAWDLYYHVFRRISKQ
T1 sequence (P62942 whole entry): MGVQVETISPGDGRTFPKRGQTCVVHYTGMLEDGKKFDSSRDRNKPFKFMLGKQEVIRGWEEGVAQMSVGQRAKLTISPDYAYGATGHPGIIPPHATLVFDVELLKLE

CO[C@H]1C[C@@H]2CC[C@@H](C)[C@@](O)(O2)C(=O)C(=O)N2CCCC[C@H]2C(=O)O[C@H]([C@H](C)C[C@@H]2CC[C@@H](O)[C@H](OC)C2)CC(=O)[C@H](C)/C=C(\C)[C@@H](O)CC[C@H](C)/C=C/C=C/C=C/1C [Compound 7]
MESO1 viability (%) ([1]; conc 9.53674e-5 uM): 102.2% and 99.0%
MESO1 viability (%) ([1]; conc 0.000190735 uM): 96.1%
MESO1 viability (%) ([1]; conc 0.00038147 uM): 98.4% and 104.2%
MESO1 viability (%) ([1]; conc 0.000762939 uM): 97.5%
MESO1 viability (%) ([1]; conc 0.00152588 uM): 94.3% and 98.4%
MESO1 viability (%) ([1]; conc 0.00305176 uM): 93.1% and 92.8%
MESO1 viability (%) ([1]; conc 0.00610352 uM): 98.2%
MESO1 viability (%) ([1]; conc 0.012207 uM): 92.2% and 89.5%
MESO1 viability (%) ([1]; conc 0.0244141 uM): 87.8%
MESO1 viability (%) ([1]; conc 0.0488281 uM): 86.4% and 84.2%
MESO1 viability (%) ([1]; conc 0.0976562 uM): 76.6% and 76.8%
MESO1 viability (%) ([1]; conc 0.195312 uM): 70.4% and 63.5%
MESO1 viability (%) ([1]; conc 0.390625 uM): 69.2% and 71.3%
MESO1 viability (%) ([1]; conc 0.78125 uM): 64.7% and 62.9%
MESO1 viability (%) ([1]; conc 1.5625 uM): 70.0% and 72.7%
MESO1 viability (%) ([1]; conc 3.125 uM): 62.1% and 64.7%
MESO1 viability (%) ([1]; conc 6.25 uM): 67.5% and 72.2%
MESO1 viability (%) ([1]; conc 12.5 uM): 60.9% and 63.2%
MESO1 viability (%) ([1]; conc 25 uM): 63.3% and 65.2%
MESO1 viability (%) ([1]; conc 50 uM): 30.2% and 20.1%
viability at 72 h, 9.53674e-05 uM ([2]; conc 9.53674e-5 uM): 96.8%
viability at 72 h, 0.000190735 uM ([2]; conc 0.000190735 uM): 92.7%
viability at 72 h, 0.00038147 uM ([2]; conc 0.00038147 uM): 98.8%
viability at 72 h, 0.000762939 uM ([2]; conc 0.000762939 uM): 94.4%
viability at 72 h, 0.00152588 uM ([2]; conc 0.00152588 uM): 97.9%
viability at 72 h, 0.00305176 uM ([2]; conc 0.00305176 uM): 90.7%
viability at 72 h, 0.00610352 uM ([2]; conc 0.00610352 uM): 100%
viability at 72 h, 0.012207 uM ([2]; conc 0.012207 uM): 86%
viability at 72 h, 0.0244141 uM ([2]; conc 0.0244141 uM): 90.4%
viability at 72 h, 0.0488281 uM ([2]; conc 0.0488281 uM): 80.8%
viability at 72 h, 0.0976562 uM ([2]; conc 0.0976562 uM): 78.6%
viability at 72 h, 0.195312 uM ([2]; conc 0.195312 uM): 68.6%
viability at 72 h, 0.390625 uM ([2]; conc 0.390625 uM): 71.6%
viability at 72 h, 0.78125 uM ([2]; conc 0.78125 uM): 67.7%
viability at 72 h, 1.5625 uM ([2]; conc 1.5625 uM): 70.1%
viability at 72 h, 3.125 uM ([2]; conc 3.125 uM): 60.8%
viability at 72 h, 6.25 uM ([2]; conc 6.25 uM): 67.3%
viability at 72 h, 12.5 uM ([2]; conc 12.5 uM): 66.3%
viability at 72 h, 25 uM ([2]; conc 25 uM): 64.4%
viability at 72 h, 50 uM ([2]; conc 50 uM): 23.2%
SKOV3 viability (%) ([3]; conc 9.53674e-5 uM): 108.9% and 101.6%
SKOV3 viability (%) ([3]; conc 0.000190735 uM): 101.5% and 97.4%
SKOV3 viability (%) ([3]; conc 0.00038147 uM): 103.2% and 103.5%
SKOV3 viability (%) ([3]; conc 0.000762939 uM): 102.5%
SKOV3 viability (%) ([3]; conc 0.00152588 uM): 105.1% and 100.3%
SKOV3 viability (%) ([3]; conc 0.00305176 uM): 94.9% and 97.9%
SKOV3 viability (%) ([3]; conc 0.00610352 uM): 104.9% and 101.4%
SKOV3 viability (%) ([3]; conc 0.012207 uM): 92.0% and 94.0%
SKOV3 viability (%) ([3]; conc 0.0244141 uM): 99.4% and 102.3%
SKOV3 viability (%) ([3]; conc 0.0488281 uM): 100.8% and 88.2%
SKOV3 viability (%) ([3]; conc 0.0976562 uM): 88.7% and 90.6%
SKOV3 viability (%) ([3]; conc 0.195312 uM): 66.8% and 68.9%
SKOV3 viability (%) ([3]; conc 0.390625 uM): 68.2% and 69.5%
SKOV3 viability (%) ([3]; conc 0.78125 uM): 60.2% and 57.4%
SKOV3 viability (%) ([3]; conc 1.5625 uM): 64.2% and 69.2%
SKOV3 viability (%) ([3]; conc 3.125 uM): 60.4% and 56.6%
SKOV3 viability (%) ([3]; conc 6.25 uM): 60.8% and 65.6%
SKOV3 viability (%) ([3]; conc 12.5 uM): 53.3% and 53.4%
SKOV3 viability (%) ([3]; conc 25 uM): 31.4% and 36.3%
SKOV3 viability (%) ([3]; conc 50 uM): 5.9% and 7.4%
viability at 72 h, 9.53674e-05 uM ([4]; SKOV-3 cells (ovarian adenocarcinoma), conc 9.53674e-5 uM): 101%
viability at 72 h, 0.000190735 uM ([4]; SKOV-3 cells (ovarian adenocarcinoma), conc 0.000190735 uM): 101%
viability at 72 h, 0.00038147 uM ([4]; SKOV-3 cells (ovarian adenocarcinoma), conc 0.00038147 uM): 98.2%
viability at 72 h, 0.000762939 uM ([4]; SKOV-3 cells (ovarian adenocarcinoma), conc 0.000762939 uM): 98.7%
viability at 72 h, 0.00152588 uM ([4]; SKOV-3 cells (ovarian adenocarcinoma), conc 0.00152588 uM): 101%
viability at 72 h, 0.00305176 uM ([4]; SKOV-3 cells (ovarian adenocarcinoma), conc 0.00305176 uM): 94.8%
viability at 72 h, 0.00610352 uM ([4]; SKOV-3 cells (ovarian adenocarcinoma), conc 0.00610352 uM): 98.4%
viability at 72 h, 0.012207 uM ([4]; SKOV-3 cells (ovarian adenocarcinoma), conc 0.012207 uM): 96.9%
viability at 72 h, 0.0244141 uM ([4]; SKOV-3 cells (ovarian adenocarcinoma), conc 0.0244141 uM): 94.4%
viability at 72 h, 0.0488281 uM ([4]; SKOV-3 cells (ovarian adenocarcinoma), conc 0.0488281 uM): 92.3%
viability at 72 h, 0.0976562 uM ([4]; SKOV-3 cells (ovarian adenocarcinoma), conc 0.0976562 uM): 88.5%
viability at 72 h, 0.195312 uM ([4]; SKOV-3 cells (ovarian adenocarcinoma), conc 0.195312 uM): 64.9%
viability at 72 h, 0.390625 uM ([4]; SKOV-3 cells (ovarian adenocarcinoma), conc 0.390625 uM): 75%
viability at 72 h, 12.5 uM ([4]; SKOV-3 cells (ovarian adenocarcinoma), conc 12.5 uM): 56.1%
viability at 72 h, 25 uM ([4]; SKOV-3 cells (ovarian adenocarcinoma), conc 25 uM): 30.8%
viability at 72 h, 50 uM ([4]; SKOV-3 cells (ovarian adenocarcinoma), conc 50 uM): 6.6%
viability at 72 h, 0.78125 uM ([4]; SKOV-3 ovarian adenocarcinoma cells, conc 0.78125 uM): 59.1%
viability at 72 h, 1.5625 uM ([4]; SKOV-3 ovarian adenocarcinoma cells, conc 1.5625 uM): 62%
viability at 72 h, 3.125 uM ([4]; SKOV-3 ovarian adenocarcinoma cells, conc 3.125 uM): 59.9%
viability at 72 h, 6.25 uM ([4]; SKOV-3 ovarian adenocarcinoma cells, conc 6.25 uM): 61.9%
PPI-inducing (binding enhancing) activity between FKBP12 and mTOR compared with rapamycin (1), in words (FKBP12 and mTOR; Fluoppi): much less potent than 1
EC50 (FKBP12 and mTOR; Fluoppi, HeLa cells, 1 h treatment, three independent biological replicates, read-out: EC50, induction of the formation of FKBP-mTOR complex): 320 nM
Foci intensity (FKBP12 and mTOR; conc 9.53674e-5 uM): 0.01546 and 0.009859 and 0.01479
Foci intensity (FKBP12 and mTOR; conc 0.000190735 uM): 0.02291 and 0.01436 and 0.01269
Foci intensity (FKBP12 and mTOR; conc 0.00038147 uM): 0.01763 and 0.009567 and 0.009808
Foci intensity (FKBP12 and mTOR; conc 0.000762939 uM): 0.02965 and 0.01327 and 0.0132
Foci intensity (FKBP12 and mTOR; conc 0.00152588 uM): 0.01988 and 0.005935 and 0.01208
Foci intensity (FKBP12 and mTOR; conc 0.00305176 uM): 0.01996 and 0.02873 and 0.02267
Foci intensity (FKBP12 and mTOR; conc 0.00610352 uM): 0.009728 and 0.0229 and 0.03931
Foci intensity (FKBP12 and mTOR; conc 0.012207 uM): 0.02585 and 0.06278 and 0.01094
Foci intensity (FKBP12 and mTOR; conc 0.0244141 uM): 0.02982 and 0.02323 and 0.02961
Foci intensity (FKBP12 and mTOR; conc 0.0488281 uM): 0.03327 and 0.007263 and 0.02034
Foci intensity (FKBP12 and mTOR; conc 0.0976562 uM): 0.0343 and 0.0166 and 0.04409
Foci intensity (FKBP12 and mTOR; conc 0.195312 uM): 0.1225 and 0.05897 and 0.08613
Foci intensity (FKBP12 and mTOR; conc 0.390625 uM): 0.2002 and 0.2003 and 0.254
Foci intensity (FKBP12 and mTOR; conc 0.78125 uM): 0.2477 and 0.2297 and 0.3237
Foci intensity (FKBP12 and mTOR; conc 1.5625 uM): 0.2891 and 0.3472 and 0.3016
Foci intensity (FKBP12 and mTOR; conc 3.125 uM): 0.3418 and 0.3544 and 0.3825
Foci intensity (FKBP12 and mTOR; conc 6.25 uM): 0.285 and 0.273 and 0.328
Foci intensity (FKBP12 and mTOR; conc 12.5 uM): 0.2778 and 0.3903 and 0.3448
Foci intensity (FKBP12 and mTOR; conc 25 uM): 0.3624 and 0.278 and 0.3289
Foci intensity (FKBP12 and mTOR; conc 50 uM): 0.2714 and 0.2974 and 0.3445
Effect on cell viability, in words [5]: slightly suppressed the cell viabilities
